From patent publication US6583309B1 (University of Medicine and Dentistry of New Jersey, priority 1999, dated 2003)

These compounds were tested against TAR RNA (assay: In vitro binding of resin-bound compounds to TAR RNA (OD260 of unbound RNA)). Details: in vitro assay; compounds of formula I on TentaGel beads incubated with TAR RNA overnight at 4° C. in TK buffer; read-out: Kd (nM), binding constants.
Parameters: species or system HIV
Experimental: Binding of compounds of formula I and V to TAR RNA was measured by evaluating their inhibition of TAR-TAT complex formation in the presence of increasing levels of the compound to be tested. The compounds of formula I were tested in an in vitro assay; the compounds of formula V were tested in an in vivo assay.
The TAR RNA used corresponds to the minimal sequence required for TAT responsiveness in vivo. This 29-residue oligonucleotide has the sequence: 5′-[…]-3′ (SEQ ID NO.: 1). TAR RNA was prepared by in vitro transcription. A “top strand” single-stranded DNA oligomer having the sequence 5′-TAATACGACTCACTATAG-3′ (SEQ ID NO.: 2) was annealed to a “bottom strand” single-stranded DNA template having the following sequence: 3′-[…]-5′ (SEQ ID NO.: 3), thereby generating a double-stranded region corresponding to a promoter sequence recognized by T7 RNA polymerase. Transcription was carried out in transcription buffer (40 mM Tris-HCl, pH 8.1, 1 mM spermidine, 0.01% Triton®X-100, 5 mM dithiothreitol, 4 mM each of ATP, GTP, CTP, and UTP at 37° C. for 4 to 5 hours. Reactions were performed in a volume of 0.02 ml containing 8 pmole of template (top strand annealed to bottom strand) and 40 to 60 units of T7 RNA polymerase. Transcription was terminated by adding an equal volume of loading buffer (9M urea, 1 mmol EDTA, 0.1M bromophenol blue in 1XTBE buffer; TBE is 45 mmol trisborate at pH 8). Product RNA was purified by electrophoresis through a denaturing 20% polyacrylamide gel containing 8M urea. RNA was extracted from the gel, precipitated, dissolved in dithylpyrocarbonate-treated water, and stored at −20° C. until used.
In vitro assay conditions: Compounds AA-DU were synthesized on TentaGel S—NH2 (4.6 mmole). All Fmoc-amino acids were purchased from Bachem (Torrance, Calif.). 1-hydroxybenzotriazole (HOBT) and diisopropylcarbodiimide (DIPCDI) were obtained from Aldrich Chemical Co., Milwalkee, Wis. Piperidine and trifluoroacetic acid were purchased from Applied Biosystems Division, Perkin-Elmer. Compounds AA-DU were synthesized manually according to standard solid-phase peptide synthesis protocols. Coupling efficiencies of residues at each step were monitored by Kaiser test. Deprotection of trimer peptides was carried out in 10% water in trifluoroacetic acid (1 mL) for 16 hours at room temperature. After filtration of solvents, the resin was washed with water (1 mL×4), DMF (1 mL×4), dichloromethane (1 mL×4), and dried under reduced pressure. The compounds attached to the resin (10 beads) were placed in an Eppendorf tube and washed with TK buffer ([…]). The beads were suspended in TK buffer ([…]) and incubated with TAR RNA ([…]) overnight at 4° C. The suspension was centrifuged and the supernatant containing unbound RNA was transferred to a cuvette for OD260 measurements. The UV absorbance was measured by a Shimadzu UV-1601 spectrometer. Equilibrium concentrations of RNA were determined from these measurements. Given that the initial concentrations of ligand and RNA are known, and assuming simple bimolecular receptor/substrate binding, dissociation constant (KD) was calculated from straightforward equations.
`NCCCCCCCNCC(=O)N[C@H](CCCCN)COC(=O)N[C@H](CCCCN)COC(N)=O` [Compound AF, Carbamic acid 6-amino-2-{6-amino-2-[2-(7-amino-heptylamino)-acetylamino]-hexyloxycarbonylamino}-hexyl ester] was tested, and the Kd was 491 nM. Compound `NCCCCNCC(=O)N[C@H](CCCCN)COC(=O)N[C@H](CCCCN)COC(N)=O` [Compound AG, Carbamic acid 6-amino-2-{6-amino-2-[2-(4-amino-butylamino)-acetylamino]-hexyloxycarbonylamino}-hexyl ester] has a Kd of 403 nM. `N=C(N)NCCC[C@H](N)COC(=O)N[C@H](CCCCN)COC(=O)N[C@H](CCCCN)COC(N)=O` [Compound AH, Carbamic acid 6-amino-2-[6-amino-2-(2-amino-5-guanidino-pentyloxycarbonylamino)-hexyloxycarbonylamino]-hexyl ester] gave a Kd of 460 nM. Compound `NCCCC[C@H](COC(N)=O)NC(=O)OC[C@@H](CCCCN)NC(=O)OC[C@H](N)CCC(N)=O` [Compound AI, Carbamic acid 6-amino-2-[6-amino-2-(2-amino-4-carbamoyl-butoxycarbonylamino)-hexyloxycarbonylamino]-hexyl ester] has a Kd of 603 nM. Work on `NCCCC[C@H](N)COC(=O)N[C@@H](CCCCN)COC(=O)N[C@H](CCCCN)COC(N)=O` [Compound AJ, Carbamic acid 6-amino-2-[6-amino-2-(2,6-diamino-hexyloxycarbonylamino)-hexyloxycarbonylamino]-hexyl ester] yielded a Kd of 4310 nM. Work on `NCCCC[C@@H](N)COC(=O)N[C@@H](CCCCN)COC(=O)N[C@H](CCCCN)COC(N)=O` [Compound AK, Carbamic acid 6-amino-2-[6-amino-2-(2,6-diamino-hexyloxycarbonylamino)-hexyloxycarbonylamino]-hexyl ester] yielded a Kd of 1720 nM. `NCCCC[C@H](COC(N)=O)NC(=O)OC[C@H](CCCCN)NC(=O)[C@@H](N)CCCCN` [Compound AL, Carbamic acid 6-amino-2-[6-amino-2-(2,6-diamino-hexanoylamino)-hexyloxycarbonylamino]-hexyl ester] showed a Kd of 2720 nM. Compound `NCCCCCNCC(=O)N[C@@H](CCCCN)COC(=O)N[C@H](CCCCN)COC(N)=O` [Compound AN, Carbamic acid 6-amino-2-{6-amino-2-[2-(5-amino-pentylamino)-acetylamino]-hexyloxycarbonylamino}-hexyl ester] has a Kd of 183 nM. Compound `NCCCCCCCNCC(=O)N[C@@H](CCCCN)COC(=O)N[C@H](CCCCN)COC(N)=O` [Compound AO, Carbamic acid 6-amino-2-{6-amino-2-[2-(7-amino-heptylamino)-acetylamino]-hexyloxycarbonylamino}-hexyl ester] has a Kd of 120 nM. `NCCCCNCC(=O)N[C@@H](CCCCN)COC(=O)N[C@H](CCCCN)COC(N)=O` [Compound AP, Carbamic acid 6-amino-2-{6-amino-2-[2-(4-amino-butylamino)-acetylamino]-hexyloxycarbonylamino}-hexyl ester] showed a Kd of 1490 nM. `N=C(N)NCCC[C@H](N)COC(=O)N[C@@H](CCCCN)COC(=O)N[C@H](CCCCN)COC(N)=O` [Compound AQ, Carbamic acid 6-amino-2-[6-amino-2-(2-amino-5-guanidino-pentyloxycarbonylamino)-hexyloxycarbonylamino]-hexyl ester] was tested, and the Kd was 2080 nM. With `NCCCC[C@H](COC(N)=O)NC(=O)OC[C@H](CCCCN)NC(=O)OC[C@H](N)CCC(N)=O` [Compound AR, Carbamic acid 6-amino-2-[6-amino-2-(2-amino-4-carbamoyl-butoxycarbonylamino)-hexyloxycarbonylamino]-hexyl ester] the Kd was 376 nM. In the case of `NCCCC[C@@H](N)COC(=O)N(CCCCN)CC(=O)N[C@H](CCCCN)COC(N)=O` [Compound AT, Carbamic acid 6-amino-2-{2-[(4-amino-butyl)-(2,6-diamino-hexyloxycarbonyl)-amino]-acetylamino}-hexyl ester], the Kd is reported as 165 nM. Compound `NCCCC[C@H](COC(N)=O)NC(=O)CN(CCCCN)C(=O)[C@@H](N)CCCCN` [Compound AU, Carbamic acid 6-amino-2-{2-[(4-amino-butyl)-(2,6-diamino-hexanoyl)-amino]-acetylamino}-hexyl ester] has a Kd of 147 nM. Compound `NCCCC[C@H](COC(N)=O)NC(=O)CN(CCCCN)C(=O)[C@H](N)CCCCN` [Compound AV, Carbamic acid 6-amino-2-{2-[(4-amino-butyl)-(2,6-diamino-hexanoyl)-amino]-acetylamino}-hexyl ester] has a Kd of 325 nM. For `NCCCCCCCNCC(=O)N(CCCCN)CC(=O)N[C@H](CCCCN)COC(N)=O` [Compound AX, Carbamic acid 6-amino-2-(2-{(4-amino-butyl)-[2-(7-amino-heptylamino)-acetyl]-amino}-acetylamino)-hexyl ester], the Kd was 165 nM. With `NCCCCNCC(=O)N(CCCCN)CC(=O)N[C@H](CCCCN)COC(N)=O` [Compound AY, Carbamic acid 6-amino-2-(2-{(4-amino-butyl)-[2-(4-amino-butylamino)-acetyl]-amino}-acetylamino)-hexyl ester] the Kd was 403 nM. Compound `N=C(N)NCCC[C@H](N)COC(=O)N(CCCCN)CC(=O)N[C@H](CCCCN)COC(N)=O` [Compound AZ, Carbamic acid 6-amino-2-{2-[(4-amino-butyl)-(2-amino-5-guanidino-pentyloxycarbonyl)-amino]-acetylamino}-hexyl ester] has a Kd of 147 nM. Work on `NCCCC[C@H](COC(N)=O)NC(=O)CN(CCCCN)C(=O)OC[C@H](N)CCC(N)=O` [Compound BA, Carbamic acid 6-amino-2-{2-[(4-amino-butyl)-(2-amino-4-carbamoyl-butoxycarbonyl)-amino]-acetylamino}-hexyl ester] yielded a Kd of 460 nM. With `NCCCCCN(CC(=O)N[C@H](CCCCN)COC(N)=O)C(=O)OC[C@@H](N)CCCCN` [Compound BB, Carbamic acid 6-amino-2-{2-[(5-amino-pentyl)-(2,6-diamino-hexyloxycarbonyl)-amino]-acetylamino}-hexyl ester] the Kd was 256 nM. In the case of `NCCCCCN(CC(=O)N[C@H](CCCCN)COC(N)=O)C(=O)[C@@H](N)CCCCN` [Compound BD, Carbamic acid 6-amino-2-{2-[(5-amino-pentyl)-(2,6-diamino-hexanoyl)-amino]-acetylamino}-hexyl ester], the Kd is reported as 235 nM. Compound `NCCCCCN(CC(=O)N[C@H](CCCCN)COC(N)=O)C(=O)[C@H](N)CCCCN` [Compound BE, Carbamic acid 6-amino-2-{2-[(5-amino-pentyl)-(2,6-diamino-hexanoyl)-amino]-acetylamino}-hexyl ester] has a Kd of 678 nM. Compound `NCCCCCNCC(=O)N(CCCCCN)CC(=O)N[C@H](CCCCN)COC(N)=O` [Compound BF, Carbamic acid 6-amino-2-(2-{(5-amino-pentyl)-[2-(5-amino-pentylamino)-acetyl]-amino}-acetylamino)-hexyl ester] has a Kd of 147 nM. Compound `NCCCCCCCNCC(=O)N(CCCCCN)CC(=O)N[C@H](CCCCN)COC(N)=O` [Compound BG, Carbamic acid 6-amino-2-{2-[[2-(7-amino-heptylamino)-acetyl]-(5-amino-pentyl)-amino]-acetylamino}-hexyl ester] has a Kd of 431 nM. In the case of `NCCCCCN(CC(=O)N[C@H](CCCCN)COC(N)=O)C(=O)CNCCCCN` [Compound BH, Carbamic acid 6-amino-2-{2-[[2-(4-amino-butylamino)-acetyl]-(5-amino-pentyl)-amino]-acetylamino}-hexyl ester], the Kd is reported as 2530 nM. `N=C(N)NCCC[C@H](N)COC(=O)N(CCCCCN)CC(=O)N[C@H](CCCCN)COC(N)=O` [Compound BI, Carbamic acid 6-amino-2-{2-[(2-amino-5guanidino-pentyloxycarbonyl)-(5-amino-pentyl)-amino]-acetylamino}-hexyl ester] was tested, and the Kd was 202 nM. For `NCCCCCN(CC(=O)N[C@H](CCCCN)COC(N)=O)C(=O)OC[C@H](N)CCC(N)=O` [Compound BJ, Carbamic acid 6-amino-2-{2-[(2-amino-4-carbamoyl-butoxycarbonyl)-(5-amino-pentyl)-amino]-acetylamino}-hexyl ester], the Kd was 202 nM.
